Assays:
J8 (GT2b) = assay: Luciferase infection assay, chimeric reporter virus J8/2b/R2a in Huh7-Lunet/CD81 cells; type: cell-based, HCV; settings: Hepatitis C virus, Huh-7, 72 h
ED43 (GT4a) = assay: Luciferase infection assay, chimeric reporter virus ED43/4a/R2a in Huh7-Lunet/CD81 cells; type: cell-based, HCV; settings: Hepatitis C virus, Huh-7, 72 h
HK6a (GT6a) = assay: Luciferase infection assay, chimeric reporter virus HK6a/6a/R2a in Huh7-Lunet/CD81 cells; type: cell-based, HCV; settings: Hepatitis C virus, Huh-7, 72 h
Luc-Jc1 reporter viruses = assay: Drug added before, during or after inoculation with Luc-Jc1 reporter virus (FIG. 2C); type: cell-based, HCV; settings: luciferase 72 h
Experimental: (A) Huh7-Lunet/CD81 cells were transfected with the subgenomic luciferase replicon depicted at the top. Drugs were added 4 h post transfection and the level of HCV RNA translation and RNA replication was quantified by luciferase assays 72 h post transfection. Mean values of three independent experiments each with quadruplicate measurements including the standard deviation are shown. (B) Cells were transfected with the Jc1 chimera depicted above and drugs were added 4 h later. HCV virus release in the presence or absence of given compounds was determined by quantification of intracellular and extracellular core protein levels using a core-specific ELISA. […] Infectivity was determined 72 h later by luciferase assays and compared to DMSO-treated controls. […]
Huh7-Lunet/CD81 cells were infected with reporter virus particles essentially as described recently (Koutsoudakis et al., J. Virol. 2006; 80: 5308-5320). […] Cells were inoculated for 4 h at 37° C., viral inoculum was replaced by fresh culture fluid and infection was quantified 48 h or 72 h after virus inoculation using luciferase assays. […] Cells infected with the renilla reporter virus were lysed in 200 μl lysis buffer (Promega, Mannheim, Germany) and after addition of the luciferase substrate (1 μM of coelenterazin (P. J. K., Kleinblittersdorf, Germany) in PBS) measured for 1 s in a luminometer (Lumat LB9507, Berthold, Freiburg, Germany). […]

Jc1 = assay: Infection of DMSO-differentiated Huh7-Lunet/CD81 cells with Jc1, limiting dilution assay; type: cell-based, HCV; settings: virus production monitored for 12 days
Source text: Next, we investigated if combination of CsA, an inhibitor of HCV RNA-replication in vitro and in vivo and also an immunosuppressive drug used in the HCV post-transplant setting, with BJ486K would increase antiviral potency. To this end, we challenged Huh7-Lunet/CD81 cells differentiated by DMSO-treatment with the highly infectious Jc1 chimera in the presence of CsA, BJ486K or a combination of both drugs (FIG. 5). […] To obtain a more quantitative measure for the combined antiviral effect of BJ486K and CsA, we inoculated nave Huh7-Lunet/CD81 cells with JcR-2a virus together with varying doses of both drugs (FIG. 6A).

JcR-2a virus = assay: microbe, parasite or virus in culture; type: cell-based, HCV
Experimental: Combined effects of CsA on BJ486K and vice versa were analysed by inoculation of Huh7-Lunet/CD81 cells with JcR-2a virus in the presence of given drugs and determination of luciferase activity 72 h later. Mean values of three independent experiments each conducted in triplicates including the standard deviations are given. Data are normalized for values determined in mock treated controls.
Huh7-Lunet/CD81 cells were infected with reporter virus particles essentially as described recently (Koutsoudakis et al., J. Virol. 2006; 80: 5308-5320). Briefly, for inoculation with firefly luciferase reporter virus particles (Luc-Jc1) and Renilla reporter viruses (JcR-2a (Reiss et al., Cell host & microbe 2011; 9: 32-45) and GT1-6, see plasmids below), Huh7-Lunet/CD81 cells were seeded at a density of 6×10 e4 cells per well of a 12-well plate or 6.6×10 e3 cells per well of a 96-well plate 24 h prior to inoculation. If not stated otherwise, the virus particles were pretreated with the inhibitors for 1 h at 37° C. Cells were inoculated for 4 h at 37° C., viral inoculum was replaced by fresh culture fluid and infection was quantified 48 h or 72 h after virus inoculation using luciferase assays. To this end, cells were washed once with PBS and in the case of the Luc-Jc1 infected cells, lysed directly on the plate with 350 μl of cold lysis buffer (0.1% Triton-X100, 25 mM glycylglycine, 15 mM MgSO4, 4 mM EGTA and 1 mM dithiothreitol, pH 7.8) and after addition of the luciferase solution (200 μM luciferin, 25 mM glycylglycine, pH8) measured for 20 s in a luminometer (Lumat LB9507, Berthold, Freiburg, Germany). Cells infected with the renilla reporter virus were lysed in 200 μl lysis buffer (Promega, Mannheim, Germany) and after addition of the luciferase substrate (1 μM of coelenterazin (P. J. K., Kleinblittersdorf, Germany) in PBS) measured for 1 s in a luminometer (Lumat LB9507, Berthold, Freiburg, Germany). The indicated IC50 values were determined by using Sigma Plot software (Systat Inc; San Jose; Calif.). […]

[1] = Bioavailability of BJ486K in mice, plasma levels by LC-MS/MS; type: in vivo
Experimental: FIG. 10: Oral bioavailability of BJ486K in mice. A single dose of 0.25 mg/kg of BJ486K was administered through oral (A) or intravenous route (B). Plasma levels of BJ486K were determined 5, 15, 30, 60, 120 and 180 minutes post administration. Mean values of two animals including the standard errors are given. (C)
Bioavailability of BJ486K. Mice (24 in total) were treated either orally or intraveniously with a single dose of 0.25 mg/kg of the inhibitor (solved in saline/10% cremophor EL). At different time points after inhibitor administration (5 min, 15 min, 30 min, 60 min, 120 min or 180 min) two mice from each group were sacrified and the blood was centrifuged to obtain the plasma, which was stored at −80° C. until further examination. 400 μl of each plasma sample was mixed with equal amount of a 2% trifluoroacetic acid and loaded on a SPE Strata C18 column (equilibrated with 1 ml methanol and 1 ml 1% trifluoroacetic acid) for solid phase extraction of the plasma. After several washing steps (1% trifluoroacetic acid and water), the samples were eluted with acetonitrile and dried. […] Samples were further analyzed with a LC-MS/MS (triple quadrupole mass spectrometer LCMS 8030 Shimadzu), which was calibrated at the day of measurement. […] Bioavailability was calculated by dividing the area under curve (AUC) for oral route by the AUC for intravenous route.

## COc1ccc(-c2cc(=O)c3c(O)c(O)c(OC)cc3o2)cc1 [BJ486K, 5,6-Dihydroxy-7-methoxy-2-(4-methoxy-phenyl)-chromen-4-one]
J8 (GT2b)
  IC50: 4140 nM
  IC90: 8420 nM
ED43 (GT4a)
  IC50: 740 nM
  IC90: 1780 nM
HK6a (GT6a)
  IC50: 750 nM
  IC90: 2390 nM
Luc-Jc1 reporter viruses
  interference with HCV infection by time of addition: only interfered with HCV infection when the drug was present during virus inoculation
Jc1
  effect on infection of differentiated cells, in words: reduced infection almost down to background levels
JcR-2a virus; 100 ng/mL of CsA
  decrease of the IC50 of BJ486K: ca. 3 fold
JcR-2a virus; Hepatitis C virus, Huh-7, 72 h
  IC90: 4370 nM
JcR-2a virus; Hepatitis C virus, Huh-7, read-out: IC50 of BJ486K
  IC50: ~400 nM
[1]; mice
  bio-availability: rather low
[1]; mouse, plasma, in mice
  half-life: ~7 min

— patent US20150056166A1, “FLAVONE DERIVATIVES AND THEIR USE” (Twincore GmbH, priority 2012, published 2015)
